Where “and” joins values, the source holds several entries; their conditions need not be identical. Identical values can stand only once.
What was measured:
Format in all cases: in vivo
[1] = system: Colorado potato beetle (Leptinotarsa decemlineata [Say]); assay: Foliar leaf-dip test against adult Colorado potato beetle on tomato plants; details: 72 h, technical
Experimental: (§1) Candidate insecticide compositions were evaluated for activity in foliar evaluations against tobacco budworm (Heliothis virescens [Fabricius]), Colorado potato beetle (Leptinotarsa decemlineata [Say]), corn earworm (Helicoverpa zea [Boddie]), cotton aphid (Aphis gossypii [Glover]) and twospotted spider mite (Tetranychus urticae [Koch]). Each test included controls in which the formulation or test solution minus the active ingredients were applied.
In tests against adult Colorado potato beetle, the leaves of 6-8 inch tall tomato plants (Lycopersicon lycoper) were dipped into the test solutions of the test formulations to provide application rates as high as 1000 ppm of the active ingredients. The test formulations were dissolved in distilled water containing 10% acetone and 0.25% of a non-ionic detergent [an octylphenolpoly(ethyleneglycolether)x, available from Roche Applied Science as Triton X-100] to the proper concentrations. The treated plants were transferred to a hood where they were kept until the leaves had dried. For tests in which the active ingredients were not formulated, i.e. the technical active ingredient was used; a stock solution of the test compound was made. For example, a 100 ppm stock solution may be made by dissolving 4 milligrams of the test compound in 4 mL of acetone and adding the solution to 36 mL of an aqueous Triton X-100 solution (one drop of Triton X-100 dissolved in 100 mL of distilled water). Further dilutions can be made by adding distilled water containing 10% acetone and 0.25% of Triton X-100.
The treated tomato plants were removed from their pots by cutting the stems just above the soil line. Each excised plant was placed into an individual 8-ounce paper cup. Ten adult Colorado potato beetles were placed into each paper cup, taking care not to cause injury. An opaque plastic lid was placed on each cup, for a 72 hour exposure period and held at 25° C., 50% relative humidity with a photo-period of 12 hours light and 12 hours dark. At the end of the 72 hour exposure period, the cups were opened, and the numbers of dead and live insects were counted. Using the insect counts, the activity of the test chemical was expressed in percent control. Percent control is derived from the total number of dead insects (TD) compared to the total number of insects (TI) in the test: […]

[2] = system: corn earworm (Helicoverpa zea [Boddie]); assay: Cotton leaf-disc dip test against corn earworm; details: 96 h, technical
Experimental: as §1
In tests against corn earworm, one inch diameter leaf discs cut from cotton plant leaves (Gossypium hirsutum) were dipped into the test solutions of the test formulations to provide application rates as high as 1000 ppm of the active ingredients. The test formulations were dissolved in distilled water containing 10% acetone and 0.25% of a non-ionic detergent [an octylphenolpoly(ethyleneglycolether)x, available from Roche Applied Science as Triton X-100] to the proper concentrations. Cotton wicks, 0.5 inch diameter by 2 inches long, were soaked with distilled water and placed into the wells of a 32 well rearing tray (available as Rearing Tray Bio-Fit 32, from C-D International, Pittman, N.J.), one wick per well. Treated leaf discs were placed on top of the cotton wicks, one leaf disc per wick, and the rearing tray was transferred to a hood where they were kept until the leaf discs had dried. Each disc was infested with 1 late second to early third instar corn earworm, replicated sixteen times per rate of application, and a lid was placed on the rearing tray. The rearing trays were held in a growth chamber for 96 hours at 25° C., 50% relative humidity and a photoperiod of 12 hours light/12 hours dark. For tests in which the active ingredients were not formulated, i.e. the technical active ingredient was used; a stock solution of the test compound was made. For example, a 100 ppm stock solution may be made by dissolving 4 milligrams of the test compound in 4 mL of acetone and adding the solution to 36 mL of an aqueous Triton X-100 solution (one drop of Triton X-100 dissolved in 100 mL of distilled water). Further dilutions can be made by adding distilled water containing 10% acetone and 0.25% of Triton X-100.
(§2) At the end of the 96 hour exposure period, the rearing tray was opened, and the numbers of dead and live insects were counted. […] Using the insect counts, the activity of the test chemical was expressed in percent control. Percent control is derived from the total number of dead insects (TD) compared to the total number of insects (TI) in the test: […]

[3] = system: cotton aphid (Aphis gossypii [Glover]); assay: Foliar leaf-dip test against cotton aphid on tomato plants; details: 72 h, technical
Experimental: as §1
In tests against cotton aphid, the leaves of 6 to 8 inch tall tomato plants (Lycopersicon lycoper) were infested with about 50 cotton aphids by placing leaf cuttings from a cotton aphid colony host tomato plant. After about 12 hours the newly infested tomato leaves were dipped into the test solutions of the test formulations to provide application rates as high as 1000 ppm of the active ingredients. The test formulations were dissolved in, and diluted as necessary, with distilled water containing 10% acetone and 0.25% of a non-ionic detergent [an octylphenolpoly(ethyleneglycolether)x, available from Roche Applied Science as Triton X-1001 to the proper concentrations. After treatment, a square of parafilm was placed around the stem of each test plant, covering the soil of each pot in order to catch dead aphids that fall from the leaves. The treated plants were transferred to a hood where they were kept until the leaves had dried. Once dry, the potted plants were placed into a tray containing at least one inch of water. The plants were spaced far enough apart to prevent the aphids from moving between plants. The trays were held in a growth chamber for 72 hours at 25° C., 50% relative humidity and a photoperiod of 14 hours light/10 hours dark. For tests in which the active ingredients were not formulated, i.e. the technical active ingredient was used; a stock solution of the test compound was made. For example, a 100 ppm stock solution may be made by dissolving 4 milligrams of the test compound in 4 mL of acetone and adding the solution to 36 mL of an aqueous Triton X-100 solution (one drop of Triton X-100 dissolved in 100 mL of distilled water). Further dilutions can be made by adding distilled water containing 10% acetone and 0.25% of Triton X-100.
At the end of the 72 hour exposure period the numbers of dead and live insects were counted. Insects were classified as “dead” if they were off-color or brown and desiccated. Using the insect counts, the activity of the test chemical was expressed in percent control. Percent control is derived from the total number of dead insects (TD) compared to the total number of insects (TI) in the test: […]

[4] = system: twospotted spider mite (Tetranychus urticae [Koch]); assay: Foliar leaf-dip test against twospotted spider mite on pinto bean plants; details: 96 h, technical
Experimental: as §1
In tests against twospotted spider mites, the leaves of potted 3 to 4 inch tall pinto bean plants (Phaseolus vulgaris) were infested with about 50 to 75 adult twospotted spider mites by placing leaf cuttings from a twospotted spider mite colony host pinto bean plant on the upper surface of the test plant leaves. After about 1 hour the newly infested pinto bean leaves were dipped into the test solutions of the test formulations to provide application rates as high as 1000 ppm of the active ingredients. The test formulations were dissolved in, and diluted as necessary, with distilled water containing 10% acetone and 0.25% of a non-ionic detergent [an octylphenolpoly(ethyleneglycolether)x, available from Roche Applied Science as Triton X-100] to the proper concentrations. The treated plants were transferred to a hood where they were kept until the leaves had dried. Once dry, the potted plants were placed into a tray containing at least one inch of water. The plants were spaced far enough apart to prevent the mites from moving between plants. The trays were held in a growth chamber for 96 hours at 25° C., 50% relative humidity and a photoperiod of 14 hours light/10 hours dark. For tests in which the active ingredients were not formulated, i.e. the technical active ingredient was used; a stock solution of the test compound was made. For example, a 100 ppm stock solution may be made by dissolving 4 milligrams of the test compound in 4 mL of acetone and adding the solution to 36 mL of an aqueous Triton X-100 solution (one drop of Triton X-100 dissolved in 100 mL of distilled water). Further dilutions can be made by adding distilled water containing 10% acetone and 0.25% of Triton X-100.
as §2, with “period” for “period, the rearing tray was opened, and”

[5] = bifenthrin 1.0 ppm alone (cyano-pyrethroid 0 ppm)
[6] = cyano-pyrethroid 10.0 ppm alone (bifenthrin 0 ppm)
[7] = cyano-pyrethroid 30.0 ppm alone (bifenthrin 0 ppm)
[8] = cyano-pyrethroid 100.0 ppm alone (bifenthrin 0 ppm)
[9] = cyano-pyrethroid 200.0 ppm alone (bifenthrin 0 ppm)

## Cc1c(COC(=O)[C@@H]2[C@H](/C=C(\Cl)C(F)(F)F)C2(C)C)cccc1-c1ccccc1 (racemic) [bifenthrin, 2-methylbiphenyl-3-ylmethyl (Z)-(1RS)-cis-3-(2-chloro-3,3,3-trifluoroprop-1-enyl)-2,2-dimethyl cyclopropanecarboxylate]
[1]; Leptinotarsa decemlineata, foliar, bifenthrin 0.3 ppm alone (cyano-pyrethroid 0 ppm)
  mortality at 0.3 ppm: 0%
[1]; [5]
  % Mortality Adult Colorado Potato Beetle: 10%
[2]; Helicoverpa zea, bifenthrin 0.1 ppm alone (cyano-pyrethroid 0 ppm)
  mortality at 0.1 ppm: 6%
[2]; Helicoverpa zea, bifenthrin 0.3 ppm alone (cyano-pyrethroid 0 ppm)
  mortality at 0.3 ppm: 13%
[2]; bifenthrin 0.3 ppm alone (cyano-pyrethroid 0 ppm)
  % Mortality Corn Earworm: 25%
[2]; [5]
  % Mortality Corn Earworm: 100% and 75% and 63%
[3]; Aphis gossypii, foliar, bifenthrin 200.0 ppm alone (cyano-pyrethroid 0 ppm)
  mortality at 200 ppm: 100%
[4]; Tetranychus urticae, foliar, bifenthrin 60.0 ppm alone (cyano-pyrethroid 0 ppm)
  mortality at 60 ppm: 68%
[4]; bifenthrin 30.0 ppm alone (cyano-pyrethroid 0 ppm)
  % Mortality Twospotted Spider Mite: 66% and 100% and 69%
[4]; bifenthrin 100.0 ppm alone (cyano-pyrethroid 0 ppm)
  % Mortality Twospotted Spider Mite: 75% and 90% and 100%

## CC(C)[C@H](C(=O)O[C@H](C#N)c1cccc(Oc2ccccc2)c1)c1ccc(Cl)cc1 [esfenvalerate, (S)-α-cyano-3-phenoxybenzyl (S)-2-(4-chlorophenyl)-3-methylbutyrate]
[1]; cyano-pyrethroid 0.3 ppm alone (bifenthrin 0 ppm)
  % Mortality Adult Colorado Potato Beetle: 0%
[1]; cyano-pyrethroid 1.0 ppm alone (bifenthrin 0 ppm)
  % Mortality Adult Colorado Potato Beetle: 0%
[1]; cyano-pyrethroid 3.0 ppm alone (bifenthrin 0 ppm)
  % Mortality Adult Colorado Potato Beetle: 5%
[1]; [6]
  % Mortality Adult Colorado Potato Beetle: 95%
[2]; cyano-pyrethroid 0.3 ppm alone (bifenthrin 0.0 ppm)
  % Mortality Corn Earworm: 0%
[2]; cyano-pyrethroid 1.0 ppm alone (bifenthrin 0.0 ppm)
  % Mortality Corn Earworm: 0%
[2]; cyano-pyrethroid 3.0 ppm alone (bifenthrin 0.0 ppm)
  % Mortality Corn Earworm: 13%
[2]; cyano-pyrethroid 10.0 ppm alone (bifenthrin 0.0 ppm)
  % Mortality Corn Earworm: 50%
[3]; [7]
  % Mortality Cotton Aphid: 38%
[3]; [8]
  % Mortality Cotton Aphid: 14%
[3]; [9]
  % Mortality Cotton Aphid: 15%
[4]; [6]
  % Mortality Twospotted Spider Mite: 21%
[4]; [7]
  % Mortality Twospotted Spider Mite: 25%
[4]; [8]
  % Mortality Twospotted Spider Mite: 71%
[4]; [9]
  % Mortality Twospotted Spider Mite: 91%
